Assays:
[1] = tested on: ER-positive invasive breast cancer with negative axillary lymph nodes; experiment: NSABP B-14 placebo and TAM arms combined: Cox interaction of treatment effect with gene expression, distant recurrence-free survival; type: in vivo, human; conditions: for H.R., treatment by gene expression interaction: placebo and TAM combined
Description: Endometrial cancer in TAM-treated breast cancer patients: Findings from the National Surgical Adjuvant Breast and Bowel Project (NSABP) B-14. J Natl Cancer Inst 86:527-537(1994). • 1.1 Fixed paraffin-embedded breast tumor tissue samples from up to 450 patients, who were treated at study entry with placebo alone in the B-14 study, were analyzed. For each evaluable patient, the expression of 16 cancer-related genes and 5 reference genes was quantitatively assessed by RT-PCR. […] Contralateral disease, other second primary cancers, and deaths prior to distant recurrence will be considered censoring events. […] Gene expression values were normalized relative to the mean of the reference genes. For each cancer-related gene, cycle threshold (CT) measurements were obtained by RT-PCR, and normalized relative to a set of five reference genes listed in Table 1. […] For the purpose of identifying treatment predictive genes in breast cancer, our primary objective was to explore the relation between gene expression and DRFS and OS in treated patients. For such analyses, data from both treated and untreated patient arms were utilized in order to discriminate treatment preditive genes from purely prognostic genes. For identifying treatment predictive genes for tamoxifen (TAM) response, both placebo and TAM-treated patients were included from NSABP Study B-14. In both studies, Cox proportional hazards models were utilized to examine the interaction between the treatment effect and gene expression. An interaction between treatment and gene expression exists if the treatment effect depends on the gene expression level; that is, if gene expression is a treatment predictive factor. Again, the likelihood ratio test was used to identify statistically significant predictive treatment genes by comparing the reduced model excluding the gene expression by treatment interaction versus the competing full model including the gene expression by treatment interaction.

[2] = tested on: ESR1 positive, node-negative breast cancer; experiment: Recurrence Score validation trial, patients treated with TAM alone in NSABP Study B-14: distant recurrence at 10 years; type: in vivo, human
Description: To test the clinical validity of this Recurrence Score test and algorithm, a blinded clinical trial with prospectively identified endpoints was carried out. This validation trial focused on patients treated with TAM alone in the randomized and registration arms of the National Surgical Adjuvant Breast and Bowel Project (NSABP) Study B-14 clinical trial population (Fisher B, Costantino J P, Redmond C K, et al: Endometrial cancer in TAM-treated breast cancer patients: Findings from the National Surgical Adjuvant Breast and Bowel Project (NSABP) B-14. J Natl Cancer Inst 86:527-537 (1994)). Genomic Health, Inc. and the NSABP carried out the 21 gene RT-PCR assay on 668 breast cancer tissue specimens derived from these patients and calculated a Recurrence Score for each patient.
Pre-specified cut-off points of Recurrence Score classified patients into one of three categories: low risk, intermediate risk, and high risk of distant disease recurrence. The proportion of the 668 patients categorized as low, intermediate, and high risk by the RT-PCR assay were 51%, 23%, and 27%, respectively. […] In a multivariate Cox model relating distant recurrence to Recurrence Score, age, and tumor size, Recurrence Score provides significant (p<0.001) predictive power that goes beyond age and tumor size. This study validated the Recurrence Score as a powerful predictor of distant recurrence in patients without involved nodes who have tumors that are ESR1 positive and treated with TAM (Paik et al. Breast Cancer Research and Treatment 82, Supplement 1: page S10, 2003 (Abstract 16).

CC/C(=C(\c1ccccc1)c1ccc(OCCN(C)C)cc1)c1ccccc1 [TAM, tamoxifen]
decrease of H.R. for recurrence of TAM-treated patients ([1]; for every two fold increase in expression of ESR1, 95% confidence limits ~12% to ~37%): about 25%
absolute benefit of TAM treatment ([1]; patients in the lowest quartile of ESR1 expression (FIG. 3)): little benefit
absolute benefit of TAM treatment ([1]; patients in the lowest tertile of ESR1 expression (FIG. 2)): much less impact
absolute benefit of TAM treatment ([1]; two-thirds of patients who express ESR1 at the highest levels (tertiles, FIG. 2)): substantial absolute benefit
H.R., treatment by gene expression interaction ([1]; variable IntBCL2_2): 0.7697
H.R., treatment by gene expression interaction ([1]; variable IntESR1 Group): 0.7573
H.R., treatment by gene expression interaction ([1]; variable IntESR1_1): 0.7438
H.R., treatment by gene expression interaction ([1]; variable IntSCUBE2_2): 0.8058
H.R., treatment by gene expression interaction ([1]; variable IntTFRC_3): 1.944
Kaplan-Meier estimate (95% confidence interval) of rate of distant recurrence at 10 years ([2]; high risk group by Recurrence Score): 30.5% (23.6%, 37.4%)
Kaplan-Meier estimate (95% confidence interval) of rate of distant recurrence at 10 years ([2]; intermediate risk group by Recurrence Score): 14.3% (8.3%, 20.3%)
Kaplan-Meier estimate (95% confidence interval) of rate of distant recurrence at 10 years ([2]; low risk group by Recurrence Score): 6.8% (4.0%, 9.6%)
